Key:
[1] = tested on: COX-2 expression in PC3 cells; assay: Immunofluorescence analysis of COX-2 expression in PC3 cells; assay type: cell-based, Human; settings: TNF-α 20 ng/mL 2 h, then 1 μM test article 2 h
Procedure: Human TNF-α (20 ng/mL) was then added to the cells and incubated for 2 h. […] The cells were then fixed with a 4% paraformaldehyde solution for 30 min at room temperature. […] The coverslips were washed 3 times with H2O and 3 times with PBS. […] After 5 washes with blocking buffer, the cells were mounted on microscope slides with mounting media (20 mM Tris of pH 8.0, 0.5% N-propyl gallate, and 70% glycerol). Images were collected with 500 ms exposure using DAPI and FITC filters. Relative fluorescence units (RFUs) were also analyzed by a plate reader at an excitation wavelength of 488 nm and an emission of 519 nm.

[2] = target: T1, ovine COX-2 (Ovis aries, UniProt P79208); assay: In vitro COX inhibition assay (EIA), COX-2; assay type: biochemical; settings: ovine COX-2, EIA, 0.75-2 mM, aspirin as positive control
T1 construct: purchased Cayman Chemicals 560101
T1 sequence (P79208 17-603): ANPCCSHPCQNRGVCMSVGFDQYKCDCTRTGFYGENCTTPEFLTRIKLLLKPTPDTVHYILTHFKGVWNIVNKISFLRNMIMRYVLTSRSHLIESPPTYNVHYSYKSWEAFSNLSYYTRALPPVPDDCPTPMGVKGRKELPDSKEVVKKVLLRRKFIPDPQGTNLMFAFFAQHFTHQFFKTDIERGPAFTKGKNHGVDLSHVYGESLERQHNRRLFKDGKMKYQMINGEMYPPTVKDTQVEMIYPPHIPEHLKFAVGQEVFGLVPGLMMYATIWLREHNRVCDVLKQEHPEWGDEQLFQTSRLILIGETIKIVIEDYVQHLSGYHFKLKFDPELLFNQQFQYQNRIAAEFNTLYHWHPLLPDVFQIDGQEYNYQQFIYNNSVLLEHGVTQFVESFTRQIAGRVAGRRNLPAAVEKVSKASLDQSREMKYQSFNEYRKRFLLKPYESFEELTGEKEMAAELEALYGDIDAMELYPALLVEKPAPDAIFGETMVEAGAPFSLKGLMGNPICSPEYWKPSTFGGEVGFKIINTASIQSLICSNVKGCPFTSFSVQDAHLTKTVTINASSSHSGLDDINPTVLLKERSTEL
Procedure: An enzyme immunoassay (EIA) kit from Cayman Chemicals (catalogue number 560101) was used to assess the ability of Platin-A to inhibit ovine COX-1 and COX-2. COX inhibition assay was performed as per the manufacturer protocol. All stock solutions were prepared following manufactures instruction. This inhibition assay was carried out using a two-step process: COX reaction and EIA. COX reaction involved preparation of following samples.
(i) Background samples: COX-1 and COX-2 were inactivated by transferring 20 μL of each enzyme to an eppendorf tube and placing the tube in boiling water for 3 min. […] (ii) COX-1 or COX-2 100% initial activity samples: 950 μL of reaction buffer, 10 μL of heme, 10 μL of COX-1 or COX-2, and 20 μL of reaction buffer were added to each test tube. (iii) COX-1 or COX-2 inhibitor samples: 950 μL of reaction buffer, 10 μL of heme, 10 μL of COX-1 or COX-2 and 20 μL of COX-1 and COX-2 inhibitors under investigation, aspirin and Platin-A of different concentrations (0.25, 0.5, 0.75, 1, and 1.5 mM for COX-1; 0.75, 1, 1.25, 1.5, and 2 mM for COX-2) were added to each test tube.
All the samples were incubated for 5 min in water bath at 37° C. […]
For EIA, 100 μL of EIA buffer was added to non-specific binding well and 50 μL of EIA buffer to maximum binding wells. […] Absorbance was recorded at a wavelength of 410 nm using a plate reader.

Q: `CC(=O)Oc1ccccc1C(=O)[O][Pt]([NH2])([NH2])([OH])([Cl])[Cl]` [Platin-A] was tested. Which “COX-2 expression in TNF-α stimulated PC3 cells” value [1] did it give?
A: levels were reduced

Q: What about the COX-2 inhibition [2] of the same compound?
A: very similar inhibition of both COX-1 and COX-2 as shown by aspirin

Source: US20170190726A9, “PRODRUG FOR RELEASE OF CISPLATIN AND CYCLOOXYGENASE INHIBITOR” (priority 2013, published 2017)
